This test deals with p65 nuclear translocation. The test can be described thus: HCS screening: etoposide-induced p65 nuclear translocation in U2-OS cells. The class given is cell-based. The settings on record: Homo sapiens, U2OS, read-out: etoposide-stimulated IC50 of p65 nuclear translocation. The protocol: Fig.1: Identification of inhibitors specific for DNA damage-induced NF-κB activity. (A) Flowchart representing the high-throughput chemical library screening. A screen/counter-screen strategy was used by stimulating NF-κB in U2-OS cells with etoposide (50 µM for 90 min) and hits were counter-screened with TNFα (10 ng/ml for 20 min). Cells were pre-treated with compounds (10 µM) for 1 hour before stimulation, fixed, and percent p65 nuclear translocation measured by fluorescence microscopy. IC50 values were used for final selection. (B) Comparison of mean p65 nuclear translocation following either etoposide or TNFa stimulation after treatment with each counter-screened hit compound. Values were normalized to etoposide or TNFα positive controls. Specific inhibitors (red) of DNA damage-induced NF-κB signaling were defined by setting cut-off criteria (black line). […] (E) Western blot analysis (top) and quantification (bottom) of NF-κB subunit p65 phosphorylation (S536) following 1-hour pre-treatment with DMSO, MW01 (10 µM), or MW05 (10 µM), in unstimulated, after 90 min irradiation (IR, 20 Gy), or after 20 min TNFα (10 ng/mL) conditions in U2- OS cells. […]
To identify inhibitors that selectively prevent DNA damage-induced NF-κB activation, we established a high-throughput screening platform quantifying p65 nuclear translocation, an essential step in NF-κB activation (Hayden and Ghosh, 2008). […]

Turning to `COc1ccc2c(c1OC)c(=O)n1c3ccc(O)cc3c3ccnc2c31` [MW01, 5-Hydroxy-10,11-dimethoxy-9H-benzo[c]indolo[3,2,1-ij][1,5]naphthyridin-9-one], the IC50 was 460 nM.
Turning to `COc1ccc2cc3c(N)nn(C(=O)c4cccc(N(C)C)c4)c3nc2c1` [MW05, (3-Amino-7-methoxypyrazolo[3,4-b]quinolin-1-yl)-[3-(dimethylamino)phenyl]methanone], the IC50 came to 690 nM.
